From patent publication EP0098577A2, “Drugs for treating diarrhea caused by infection” (HOECHST AKTIENGESELLSCHAFT, priority 1982, dated 1984)
Where two headings read alike, the source gives them in different places.

Assays:
Experiment in all cases: in vitro checkerboard method (Schachbrettmethode): MHK and FIC-Index
Format in all cases: cell-based
E. coli 0 55 = settings: single substance; for MIC: Escherichia coli, 055, in vitro
From the text: (§1) Zur Untersuchung der erfindungsgemäßen Kombination wurden mit typischen Vertretern der grampositiven und gramnegativen Keimgruppen in vitro Versuche durchgeführt. Mit der für Kombinationsversuche üblichen Methode, der sogenannten "Schachbrettmethode" (vgl. "Antibiotics in Laboratory Medicine", Editor Lorian, Baltimore London 1980, Seiten 300-309), wurden sowohl die minimalen Hemmkonzentrationen (MHK) als auch die Hemmgrenzen in den einzelnen Kombinationen bestimmt. Das Endergebnis wurde als FIC-Index (Fractional Inhibitory Concentration Index) ausgedrückt. Der FIC-Index berechnet sich nach folgender Formel: [formula]
(§2) Hierbei ist A bzw. B die niedrigste Konzentration der Verbindungen A bzw. B, die in Kombination mit der Verbindung B bzw. A eine Hemmwirkung zeigt. Dieser Wert wird durch die MHK der Verbindung A bzw. B dividiert. Der so erhaltene FIC-Index gibt Aufschluß über die Interaktionen von zwei Verbindungen in ihrer antibakteriellen Wirkung. FIC-Index-Zahlen, die kleiner als 1 sind, drücken eine synergistische Wirkung aus. Die mit dieser Methode ermittelten Resultate sind in den nachstehenden Tabellen zusammengestellt.
(§3) In den nachstehenden Tabellen sind in den ersten beiden Spalten die minimalen Hemmkonzentrationen der geprüften Verbindungen in Mikrogramm pro Milliliter aufgeführt. In einigen Fällen sind abweichende Konzentrationseinheiten angegeben, z.B. Nanogramm [ng] oder Milligramm [mg] pro Milliliter. Wenn ein FIC-Index nicht angegeben wurde, so bedeutet dies, daß aufgrund der Unwirksamkeit des einen Wirkstoffes keine Grenze zu ermitteln war.

E. coli TEM = settings: Escherichia coli, read-out: MHK
From the text: as §1, §2, §3

Hafnia alvei ATCC 11604 = system: Hafnia alvei ATCC 11604
From the text: as §1, §2, §3

[1] = system: Klebsiella pneumoniae A 9977
From the text: as §1, §2, §3

[2] = system: Micrococcus luteus ATCC 9341
From the text: as §1, §2, §3

Proteus rettgeri 936 = settings: single substance; for MIC: Providencia rettgeri, 936, in vitro
From the text: as §1, §2, §3

Pseud. aeruginosa 1771 m = settings: single substance; for MIC: Pseudomonas aeruginosa, 1771M
From the text: as §1, §2, §3

[3] = system: Pseud. aeruginosa ATCC 9027; settings: Pseudomonas aeruginosa, ATCC9027, in vitro, single substance
From the text: as §1, §2, §3

[4] = system: Pseud. aeruginosa NCTC 10701; settings: Pseudomonas aeruginosa, NCTC10701, in vitro, single substance
From the text: as §1, §2, §3

Salmonella oranienburg = settings: Salmonella enterica, single substance
From the text: as §1, §2, §3

Salmonella paratyphi A = settings: Salmonella enterica, read-out: MHK
From the text: as §1, §2, §3

Salmonella typhimurium = settings: for MIC: Salmonella enterica, TYPHIMURIUM, read-out: MHK
From the text: as §1, §2, §3

[5] = system: Serratia marcescens A 20019; settings: single substance; for MIC: Serratia marcescens, A20019, in vitro
From the text: as §1, §2, §3

[6] = system: Serratia marcescens A 20460; settings: for MIC: Serratia marcescens
From the text: as §1, §2, §3

Staph. aureus SG 511 = settings: Staphylococcus aureus, SG511, single substance
From the text: as §1, §2, §3

Strept. faecium D = settings: Enterococcus faecium, single substance
From the text: as §1, §2, §3

Enterobacter cloacae = settings: read-out: MHK
From the text: as §1, §2, §3

Strept. pyogenes A 77 = settings: Streptococcus pyogenes, A77, single substance
From the text: as §1, §2, §3

[7] = system: Bacillus subtilis ATCC 6633
From the text: as §1, §2, §3

E. coli 0 86 = settings: Escherichia coli, 086, single substance, ng per millilitre (b7)
From the text: as §1, §2, §3

[8] = ATCC9341, in vitro, single substance, Micrococcus luteus ATCC 9341, read-out: MHK
[9] = in vitro, single substance, Salmonella typhimurium

SMILES | MIC (E. coli TEM) [µg/mL] | MIC [2, 8] [µg/mL] | MIC (Pseud. aeruginosa 1771 m) [µg/mL] | MIC [3] [µg/mL] | MIC [4] [µg/mL] | MIC (Salmonella paratyphi A) [µg/mL] | MIC (Staph. aureus SG 511) [µg/mL] | MIC (Strept. faecium D) [µg/mL] | MIC (Strept. pyogenes A 77; mg per millilitre (b7)) [µg/mL] | MIC (E. coli 0 86) [µg/mL] | MIC (Proteus rettgeri 936; ng per millilitre (b7)) [µg/mL] | MIC (Salmonella oranienburg; ng per millilitre (b7)) [µg/mL] | MIC (Strept. pyogenes A 77) [µg/mL] | other results
CCOc1ccc2nc3cc(N)ccc3c(N)c2c1 [EAL, Ethacridinlactat] | 12.5 | 6.25 | 31.2 | 12.5 | 12.5 | 12.5 | 6.25 | 12.5 |  |  |  |  |  | MIC (E. coli 0 55): 6.25 µg/mL; MHK (E. coli 0 55; in vitro): 12,5 µg/ml; MIC (Hafnia alvei ATCC 11604; ATCC11604, in vitro, single substance, Hafnia alvei ATCC 11604, read-out: MHK): 62.5 µg/mL; MIC ([1]; A9977, in vitro, single substance, Klebsiella pneumoniae A 9977, read-out: MHK): 125 µg/mL; MIC (Proteus rettgeri 936): 31.2 µg/mL; MHK (Proteus rettgeri 936; in vitro): 62,5 µg/ml; MHK (Pseud. aeruginosa 1771 m): 62,5 µg/ml; MIC (Salmonella oranienburg): 62.5 µg/mL; MIC (Salmonella typhimurium; [9]): 25 µg/mL; MHK (Salmonella typhimurium; [9]): 50,0 µg/ml; MIC ([5]; mg per millilitre (b7)): 1000 µg/mL; MHK ([5]; in vitro, mg per millilitre (b7)): >1,0 mg; MIC ([6]; A20460, in vitro, single substance, Serratia marcescens A 20460, mg per millilitre (b7), read-out: MHK): > 1000 µg/mL; MHK ([6]; in vitro, single substance, Serratia marcescens A 20460, mg per millilitre (b7)): 1,0 mg
COn1cc(C(=O)O)c(=O)c2cc3c(cc21)OCO3 [Miloxacin] |  |  | 50 | 25 | 31.2 |  | 6.25 |  | > 1000 |  |  |  |  | MIC (Enterobacter cloacae; in vitro, single substance): 2.5 µg/mL; MIC ([2]; ATCC9341, in vitro, single substance, Micrococcus luteus ATCC 9341, mg per millilitre (b7), read-out: MHK): > 1000 µg/mL; MIC (Strept. faecium D; mg per millilitre (b7)): > 1000 µg/mL
CCn1cc(C(=O)O)c(=O)c2ccc(C)nc21 [Nalidixinsäure] |  |  | 100 | 500 | 250 |  | 50 | 500 | > 1000 |  |  |  |  | MIC ([7]; Bacillus subtilis, ATCC6633, read-out: MHK): 6.25 µg/mL; MIC (Enterobacter cloacae): 6.25 µg/mL; MIC ([1]; Klebsiella pneumoniae, A9977, read-out: MHK): 6.25 µg/mL; MIC ([2]; Micrococcus luteus, ATCC9341, read-out: MHK): > 1000 µg/mL; MIC ([6]; A20460, read-out: MHK): 6.25 µg/mL
CCn1cc(C(=O)O)c(=O)c2cc(F)c(N3CCNCC3)cc21 [Norfloxacin] | 0.0391 | 12.5 |  |  |  | 0.0195 |  | 1.25 |  | 0.0391 | 0.0781 | 0.0781 | 2.5 | MIC (E. coli 0 55; ng per millilitre (b7)): 0.0391 µg/mL; MIC (Hafnia alvei ATCC 11604; Hafnia alvei, ATCC11604, read-out: MHK): 0.0195 µg/mL; MIC (Salmonella typhimurium): 0.0195 µg/mL; MIC ([5]; ng per millilitre (b7)): 0.0781 µg/mL
CCn1cc(C(=O)O)c(=O)c2cc3occc3nc21 [OFNC, 5-Äthyl-5,8-dihydro-8-oxofuran(3,2-b)(1,8)-naphthyridin-7-carbonsäure] |  | 31.2 |  |  |  | 0.0391 |  | 31.2 |  | 0.0625 | 0.0312 | 0.0781 | 125 | MIC ([7]; ATCC6633, in vitro, single substance, Bacillus subtilis ATCC 6633, ng per millilitre (b7), read-out: MHK): 0.0488 µg/mL; MIC (Hafnia alvei ATCC 11604; ATCC11604, in vitro, single substance, Hafnia alvei ATCC 11604, ng per millilitre (b7), read-out: MHK): 0.0391 µg/mL; MIC ([1]; A9977, in vitro, single substance, Klebsiella pneumoniae A 9977, ng per millilitre (b7), read-out: MHK): 0.0781 µg/mL; MIC (Salmonella typhimurium; in vitro, single substance, Salmonella typhimurium, ng per millilitre (b7)): 0.0781 µg/mL
